Test system: aerobic bacteria
Assay: Dissolved oxygen measurement in an illuminated microalgae-bacteria culture sample with successive additions of substrate and inhibitor (Example 2, FIG. 4)
Type: cell-based
Conditions: culture of Nannochloropsis oculata sp. 0.3 g/L and aerobic bacteria 0.05 g/L
Procedure: A sample of a culture comprising microalgae of the type Nannochloropsis oculata sp. in a concentration of 0.3 g/L. and aerobic bacteria in a concentration of 0.05 g/L was transferred from a bioreactor to a chamber having a volume of 300 mL and comprising a magnetic stirrer and a source for emitting light. The source for emitting light comprised light-emitting diode strings located around the chamber.
During the whole experiment, the chamber was provided with light. In other words, several illumination steps were carried out successively, in order to conduct, during each illumination step, the measurement of the dissolved oxygen present in the sample. This measurement was carried out with a Luminescent Dissolved Oxygen (LDO) sensor (HACH) inserted in the chamber. After each illumination step, the sample was returned to the bioreactor and replaced with a new sample.
More particularly, after point 11, a total amount of 70 mg/L of CuSO4 was added to the sample.

| SMILES | effect on the activity of bacteria (oxygen production rate of the sample) (successive additions 1 to 11, total 70 mg/L CuSO4 after point 11) | effect on the activity of bacteria (dissolved oxygen concentration, oxygen consumption by respiration) (after each addition (1 to 11) of substrate) |
| --- | --- | --- |
| O=S(=O)([O-])[O-].[Cu+2] [CuSO4] | increasing inhibitory effect | – |
| CCO [ethanol] | – | increases the activity of bacteria |
